In ChEMBL document CHEMBL5500364, “Design, synthesis, and biological evaluation of some 2-(3-oxo-5,6-diphenyl-1,2,4-triazin-2(3H)-yl)-N-phenylacetamide hybrids as MTDLs for Alzheimer's disease therapy” (Eur J Med Chem, 2024):
Calls of active or inactive are those of the source. The rule behind the calls is not given here.

How the values were obtained:
Drosophila [1] = experiment: Neuroprotective activity in ey-GAL4>UAS-amyloid beta (1 to 42) induced cellular toxicity in Oregon R-positive Drosophila model assessed as rescue in eye phenotype at 20 uM by Stereo zoom microscopic imaging analysis relative to control; format: functional
[2] = Cmax in male Wistar rat at 10 mg/kg, po measured after 72 hrs by HPLC analysis; format: ADME, organism-based; conditions: in vivo
[3] = AUC (0 to 8 hrs) in male Wistar rat at 10 mg/kg, po measured after 72 hrs by HPLC analysis; format: ADME, organism-based; conditions: in vivo
[4] = Toxicity in wildtype Oregon R-positive Drosophila assessed as cell viability in gut at 5 uM by MTT assay relative to control; format: tissue-based; conditions: read-out: Activity
[5] = Acute toxicity in Wistar rat assessed as effect on kidney appearance at 500 to 1000 mg/kg, po administered for 14 days by histopathological analysis; format: organism-based; conditions: in vivo, 336 h, dose 500-1000 mg/kg, time 14 day
Rattus norvegicus [6] = experiment: (§1) Reversal of amyloid beta (1 to 42 residues) induced cognitive impairment in Wistar rat assessed as decrease in alpha-synuclein protein level at 10 mg/kg, po pretreated with amyloid beta for 7 days followed by compound administration for 9 days and measured after 5 days by Western blot analysis; format: functional, organism-based; conditions: time 14.0 day
[7] = Acute toxicity in Wistar rat assessed as toxicity symptoms at 500 to 1000 mg/kg, po administered for 14 days; format: organism-based; conditions: in vivo, 336 h, dose 500-1000 mg/kg, time 14 day
Rattus norvegicus [8] = experiment: as §1, with “BACE-1” for “alpha-synuclein protein”, “level in CA1 region of hippocampus” for “level”, “immuno histochemical” for “Western blot”; format: functional, organism-based; conditions: time 14.0 day
[9] = MRT in male Wistar rat at 10 mg/kg, po measured after 72 hrs by HPLC analysis; format: ADME, organism-based; conditions: in vivo
Hippocampus [10] = experiment: Reversal of scopolamine-induced oxidative stress in male Wistar rat brain hippocampus assessed as decrease in MDA level at 2.5 to 10 mg/kg, po preadministered with compound for 30 mins starting from 7 th day trail followed by scopolamine administration and measured after 5 mins by TBARS assay; format: functional, organism-based; conditions: dose 2.5-10 mg/kg, time 35.0 min
[11] = Toxicity in wildtype Oregon R-positive Drosophila assessed as cell viability in gut at 10 uM by MTT assay relative to control; format: tissue-based; conditions: read-out: Activity
[12] = Acute toxicity in Wistar rat assessed as effect on lung appearance at 500 to 1000 mg/kg, po administered for 14 days by histopathological analysis; format: organism-based; conditions: in vivo, 336 h, dose 500-1000 mg/kg, time 14 day
Drosophila [13] = experiment: Neuroprotective activity in ey-GAL4>UAS-amyloid beta (1 to 42) induced cellular toxicity in Oregon R-positive Drosophila model assessed as rescue in eye phenotype at 10 uM by Stereo zoom microscopic imaging analysis relative to control; format: functional
[14] = biological target: Amyloid-beta precursor protein (Homo sapiens) (UniProt P05067); experiment: Inhibition of amyloid beta (1 to 42) (unknown origin) aggregation assessed as reduction in amyloid-beta aggregates at 50 uM incubated for 48 hrs by TEM analysis
Amyloid-beta precursor protein (Homo sapiens), sequence (P05067 whole entry, the tested form may be a part): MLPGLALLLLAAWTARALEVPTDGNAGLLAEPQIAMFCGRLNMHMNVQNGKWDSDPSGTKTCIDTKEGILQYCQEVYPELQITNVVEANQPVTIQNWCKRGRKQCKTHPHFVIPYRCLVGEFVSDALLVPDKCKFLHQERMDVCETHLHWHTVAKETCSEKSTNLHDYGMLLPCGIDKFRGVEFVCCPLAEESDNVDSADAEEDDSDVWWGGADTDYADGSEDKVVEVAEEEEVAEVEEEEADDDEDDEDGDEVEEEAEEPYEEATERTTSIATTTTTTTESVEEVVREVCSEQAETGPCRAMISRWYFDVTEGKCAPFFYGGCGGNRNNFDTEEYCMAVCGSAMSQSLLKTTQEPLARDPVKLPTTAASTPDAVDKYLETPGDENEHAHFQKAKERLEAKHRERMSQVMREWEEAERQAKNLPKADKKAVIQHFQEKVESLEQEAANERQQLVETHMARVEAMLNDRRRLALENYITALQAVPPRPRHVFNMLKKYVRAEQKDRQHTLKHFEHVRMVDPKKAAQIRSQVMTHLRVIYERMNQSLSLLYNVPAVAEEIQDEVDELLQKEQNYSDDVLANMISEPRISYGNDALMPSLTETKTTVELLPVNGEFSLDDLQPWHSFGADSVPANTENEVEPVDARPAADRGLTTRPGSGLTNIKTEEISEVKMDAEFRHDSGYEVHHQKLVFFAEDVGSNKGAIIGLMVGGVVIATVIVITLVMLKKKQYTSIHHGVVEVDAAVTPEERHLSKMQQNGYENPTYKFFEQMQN

Rattus norvegicus [15] = experiment: Reversal of amyloid beta (1 to 42 residues) induced cognitive impairment in Wistar rat assessed as reduction in appearance of pyknotic neuron bodies in hippocampus at 2.5 to 10 mg/kg, po pretreated with amyloid beta for 7 days followed by compound administration for 9 days and measured after 5 days by Nissl's staining based analysis; format: functional, organism-based; conditions: dose 2.5-10 mg/kg, time 14.0 day
[16] = Acute toxicity in Wistar rat assessed as body weight loss at 500 to 1000 mg/kg, po measured for 2 to 3 days relative to control; format: organism-based; conditions: in vivo, dose lower 500 mg/kg, time lower 2 day, dose upper 1000 mg/kg, time upper 3 day
Hippocampus [17] = experiment: Reversal of scopolamine-induced oxidative stress in male Wistar rat brain hippocampus assessed as increase in catalase level preadministered orally with compound for 30 mins starting from 7 th day trail followed by scopolamine administration and measured after 5 mins by spectrophotometric analysis; format: functional, tissue-based; conditions: dose 2.5-10 mg/kg, route po, time 35.0 min
[18] = Toxicity in wildtype Oregon R-positive Drosophila assessed as eclosion at 50 uM pretreated for 5 days and measured for 15 days relative to control; conditions: 480 h, time 20 day
Rattus norvegicus [19] = experiment: Antialzheimer activity against scopolamine-induced amnesia in male Wistar rat model assessed as restoration of memory function by measuring percentage spontaneous alteration at 2.5 to 10 mg/kg, po preadministered with compound for 30 mins starting from 7 th day trail followed by scopolamine administration and measured after 5 mins by Y maze test; format: functional, organism-based; conditions: dose 2.5-10 mg/kg, time 35.0 min
[20] = Acute toxicity in Wistar rat assessed as effect on DCT shape at 500 to 1000 mg/kg, po administered for 14 days by histopathological analysis; format: organism-based; conditions: in vivo, 336 h, dose 500-1000 mg/kg, time 14 day
Cholinesterase = Cholinesterase (Homo sapiens, UniProt P06276); experiment: Inhibition of human BChE using butyrylthiocholine iodide as substrate preincubated for 30 mins followed by substrate addition by DTNB based Ellman's colorimetric method
Cholinesterase, sequence (P06276 whole entry): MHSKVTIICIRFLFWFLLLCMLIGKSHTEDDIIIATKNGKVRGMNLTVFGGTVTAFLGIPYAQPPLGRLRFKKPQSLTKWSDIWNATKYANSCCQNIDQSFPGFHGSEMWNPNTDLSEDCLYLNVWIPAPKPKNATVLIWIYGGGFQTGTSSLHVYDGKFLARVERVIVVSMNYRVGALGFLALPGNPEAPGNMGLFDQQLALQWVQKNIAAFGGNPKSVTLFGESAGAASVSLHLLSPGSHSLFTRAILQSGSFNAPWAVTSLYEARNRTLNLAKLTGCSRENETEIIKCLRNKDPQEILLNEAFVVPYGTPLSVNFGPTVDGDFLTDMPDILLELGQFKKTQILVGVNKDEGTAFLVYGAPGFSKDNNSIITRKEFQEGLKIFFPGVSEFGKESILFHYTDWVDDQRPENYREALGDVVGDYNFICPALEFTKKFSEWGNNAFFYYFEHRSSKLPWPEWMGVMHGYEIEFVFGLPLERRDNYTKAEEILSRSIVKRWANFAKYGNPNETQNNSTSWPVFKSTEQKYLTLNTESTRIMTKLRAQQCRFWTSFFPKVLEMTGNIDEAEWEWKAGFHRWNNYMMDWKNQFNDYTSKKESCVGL

SH-SY5Y = experiment: Neuroprotective activity against amyloid-beta(1 to 42) induced oxidative stress in differentiated human SH-SY5Y cells assessed as increase in cell viability at 40 uM preincubated with amyloid-beta (1 to 42 ) for 24 hrs followed by compound addition and measured after 48 hrs by MTT assay relative to control; format: functional
Rattus norvegicus [21] = experiment: as §1, with “amyloid” for “alpha-synuclein protein”, “level in DG region of hippocampus” for “level”, “immuno histochemical” for “Western blot”; format: functional, organism-based; conditions: time 14.0 day
[22] = Toxicity in wildtype Oregon R-positive Drosophila assessed as cell viability in gut at 50 uM by MTT assay relative to control; format: tissue-based; conditions: read-out: Activity
[23] = Acute toxicity in Wistar rat assessed as effect on glomerulus shape at 500 to 1000 mg/kg, po administered for 14 days by histopathological analysis; format: organism-based; conditions: in vivo, 336 h, dose 500-1000 mg/kg, time 14 day
[24] = Acute toxicity in Wistar rat assessed as effect on kupffer cells appearance in liver at 500 to 1000 mg/kg, po administered for 14 days by histopathological analysis; format: organism-based; conditions: in vivo, 336 h, dose 500-1000 mg/kg, time 14 day
[25] = biological target: Amyloid-beta precursor protein (Homo sapiens) (UniProt P05067); experiment: Inhibition of human AchE-induced amyloid beta (1 to 42) (unknown origin) aggregation at 5 to 20 uM incubated for 48 hrs by Thioflavin T fluorescence assay relative to control; conditions: dose 5-20 µM
Acetylcholinesterase [26] = biological target: T1, Acetylcholinesterase (Homo sapiens, UniProt P22303); experiment: Inhibition of human erythrocyte AChE using acetylthiocholine iodide as substrate preincubated for 30 mins followed by substrate addition by DTNB based Ellman's colorimetric method
T1 sequence (P22303 whole entry): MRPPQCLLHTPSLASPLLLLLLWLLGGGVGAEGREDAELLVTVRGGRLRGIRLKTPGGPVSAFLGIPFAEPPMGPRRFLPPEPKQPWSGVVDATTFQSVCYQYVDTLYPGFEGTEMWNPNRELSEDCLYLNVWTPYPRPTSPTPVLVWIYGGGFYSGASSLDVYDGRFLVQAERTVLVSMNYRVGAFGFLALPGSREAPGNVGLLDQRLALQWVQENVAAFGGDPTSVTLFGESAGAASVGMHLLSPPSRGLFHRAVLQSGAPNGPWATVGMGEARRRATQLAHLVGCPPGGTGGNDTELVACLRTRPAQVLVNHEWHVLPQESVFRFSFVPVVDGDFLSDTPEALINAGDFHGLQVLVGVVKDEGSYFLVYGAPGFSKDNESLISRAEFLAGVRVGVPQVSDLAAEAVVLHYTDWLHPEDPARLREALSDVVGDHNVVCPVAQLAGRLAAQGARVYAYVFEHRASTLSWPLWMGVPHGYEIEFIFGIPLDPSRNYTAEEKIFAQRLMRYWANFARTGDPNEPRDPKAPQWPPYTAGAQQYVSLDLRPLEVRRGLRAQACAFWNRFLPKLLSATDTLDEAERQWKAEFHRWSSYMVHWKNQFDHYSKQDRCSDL

[27] = Acute toxicity in Wistar rat assessed as maximum tolerated dose administered orally for 14 days; conditions: in vivo, route po, time 14 day
Acetylcholinesterase [28] = biological target: T1, Acetylcholinesterase; experiment: Mixed type non-competitive inhibition of human erythrocyte AChE using acetylthiocholine iodide as substrate assessed as decrease in Vmax with increase in Km at 0.25 to 0.75 uM by Lineweaver-burk plot analysis; conditions: dose 0.25-0.75 µM
Rattus norvegicus [29] = experiment: Reduction in AChE level in scopolamine-induced male Wistar rat brain hippocampus preadministered with compound orally for 30 mins starting from 7 th day trail followed by scopolamine administration and measured after 5 mins by Ellman's method; format: functional, tissue-based; conditions: dose 2.5-10 mg/kg, route po, time 35.0 min
Rattus norvegicus [30] = experiment: as §1, with “BACE-1” for “alpha-synuclein protein”, “level in CA3 region of hippocampus” for “level”, “immuno histochemical” for “Western blot”; format: functional, organism-based; conditions: time 14.0 day
[31] = biological target: Dual specificity tyrosine-phosphorylation-regulated kinase 1A (Homo sapiens, UniProt Q13627); experiment: Inhibition of Dyrk1A (unknown origin) incubated for 1 hrs in presence of [gamma-33P]-ATP by microplate scintillation counter based radiometric protein kinase assay

For `COc1cc(NC(=O)Cn2nc(-c3ccccc3)c(-c3ccccc3)nc2=O)cc(OC)c1`, the Activity (Drosophila [1]) was 57%, the Cmax [2] was 355 ng/mL and the AUC(0-t) at 72 h [3] was 1140 ng·h/mL. For the same compound, the viability at 5 µM [4] was 97%, the Activity [5] was “Non-Toxic” and the Activity (Rattus norvegicus [6]) was “Active”. The Activity [7] was “Non-Toxic”, the Activity (Rattus norvegicus [8]) was “Active” and the MRT [9] was 32 h. For the same compound, the Activity (Hippocampus [10]) was “Active”, the viability at 10 µM [11] was 78% and the Activity [12] was “Non-Toxic”. For the same compound, the Activity (Drosophila [13]) was 21%, the inhibition [14] was “Active” and the Activity (Rattus norvegicus [15]) was “Active”. For the same compound, the Activity [16] was 7%, the Activity (Hippocampus [17]) was “Dose-Dependent Effect” and the Activity [18] was 25%. For the same compound, the Activity (Rattus norvegicus [19]) was “Active”, the Activity [20] was “Non-Toxic” and the IC50 (Cholinesterase) was > 10 µM. For the same compound, the Activity (SH-SY5Y) was 72%, the Activity (Rattus norvegicus [21]) was “Active” and the viability at 50 µM [22] was 38%. For the same compound, the Activity [23] was “Non-Toxic”, the Activity [24] was “Non-Toxic” and the inhibition [25] was 41.3%. The IC50 (Acetylcholinesterase [26]) was 0.486 µM, the MTD at 336 h [27] was 1000 mg/kg and the inhibition (Acetylcholinesterase [28]) was “Active”. The Activity (Rattus norvegicus [29]) was “Dose-Dependent Effect”, the Activity (Rattus norvegicus [30]) was “Active” and the IC50 [31] was > 10 µM.
